Measurements from patent publication US10670605B2, “Cysteine reactive probes and uses thereof” (The Scripps Research Institute, priority 2015, dated 2020).
One block for each compound: values may come before it.

Assays:
Assay in all cases: Competitive isoTOP-ABPP in situ (fragment-treated cells)
Assay type in all cases: cell-based
[1] = molecular target: T1, cysteines in MDA-MB-231 and Ramos cells (Homo sapiens, UniProt P29590)
T1 sequence (P29590 1-882): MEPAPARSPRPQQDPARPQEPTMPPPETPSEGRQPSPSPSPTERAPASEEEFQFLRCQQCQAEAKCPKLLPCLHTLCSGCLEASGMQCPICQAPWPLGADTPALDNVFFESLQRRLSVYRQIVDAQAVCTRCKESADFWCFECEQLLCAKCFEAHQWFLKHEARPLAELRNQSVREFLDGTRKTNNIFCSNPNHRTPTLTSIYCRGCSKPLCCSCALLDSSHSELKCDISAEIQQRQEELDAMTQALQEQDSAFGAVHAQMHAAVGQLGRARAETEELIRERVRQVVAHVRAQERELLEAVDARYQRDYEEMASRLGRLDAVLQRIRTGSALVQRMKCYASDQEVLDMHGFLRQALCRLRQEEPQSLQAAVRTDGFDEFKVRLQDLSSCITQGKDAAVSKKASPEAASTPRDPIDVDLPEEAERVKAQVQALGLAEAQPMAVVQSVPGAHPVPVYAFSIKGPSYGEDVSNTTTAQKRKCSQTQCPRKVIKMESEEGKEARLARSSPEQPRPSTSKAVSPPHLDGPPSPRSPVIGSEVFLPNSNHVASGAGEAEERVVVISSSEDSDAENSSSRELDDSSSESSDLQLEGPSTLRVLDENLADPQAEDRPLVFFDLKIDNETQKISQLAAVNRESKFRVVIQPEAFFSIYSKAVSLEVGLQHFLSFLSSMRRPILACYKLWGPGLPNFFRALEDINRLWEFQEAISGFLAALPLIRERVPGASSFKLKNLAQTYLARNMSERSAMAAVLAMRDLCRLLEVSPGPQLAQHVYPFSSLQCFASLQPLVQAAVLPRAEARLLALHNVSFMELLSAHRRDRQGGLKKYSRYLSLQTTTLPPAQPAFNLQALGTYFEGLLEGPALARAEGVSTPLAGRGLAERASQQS

[2] = molecular target: T2, cysteines in MDA-MB-231 and Ramos cells (Homo sapiens, UniProt Q9NWA0)
T2 sequence (Q9NWA0 1-146): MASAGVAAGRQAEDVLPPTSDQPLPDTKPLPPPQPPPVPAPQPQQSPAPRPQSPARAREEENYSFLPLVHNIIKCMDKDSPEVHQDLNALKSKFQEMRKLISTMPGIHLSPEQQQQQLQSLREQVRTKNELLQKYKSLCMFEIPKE

[3] = molecular target: cysteines in MDA-MB-231 and Ramos cells (Homo sapiens, UniProt Q06203); conditions: for isoTOP-ABPP ratio, cysteine Q06203_C100 / isoTOP-ABPP ratio Q06203_C100: 200 μM, insitu
[4] = molecular target: T3, cysteines in MDA-MB-231 and Ramos cells (Homo sapiens, UniProt P19447)
T3 sequence (P19447 1-782): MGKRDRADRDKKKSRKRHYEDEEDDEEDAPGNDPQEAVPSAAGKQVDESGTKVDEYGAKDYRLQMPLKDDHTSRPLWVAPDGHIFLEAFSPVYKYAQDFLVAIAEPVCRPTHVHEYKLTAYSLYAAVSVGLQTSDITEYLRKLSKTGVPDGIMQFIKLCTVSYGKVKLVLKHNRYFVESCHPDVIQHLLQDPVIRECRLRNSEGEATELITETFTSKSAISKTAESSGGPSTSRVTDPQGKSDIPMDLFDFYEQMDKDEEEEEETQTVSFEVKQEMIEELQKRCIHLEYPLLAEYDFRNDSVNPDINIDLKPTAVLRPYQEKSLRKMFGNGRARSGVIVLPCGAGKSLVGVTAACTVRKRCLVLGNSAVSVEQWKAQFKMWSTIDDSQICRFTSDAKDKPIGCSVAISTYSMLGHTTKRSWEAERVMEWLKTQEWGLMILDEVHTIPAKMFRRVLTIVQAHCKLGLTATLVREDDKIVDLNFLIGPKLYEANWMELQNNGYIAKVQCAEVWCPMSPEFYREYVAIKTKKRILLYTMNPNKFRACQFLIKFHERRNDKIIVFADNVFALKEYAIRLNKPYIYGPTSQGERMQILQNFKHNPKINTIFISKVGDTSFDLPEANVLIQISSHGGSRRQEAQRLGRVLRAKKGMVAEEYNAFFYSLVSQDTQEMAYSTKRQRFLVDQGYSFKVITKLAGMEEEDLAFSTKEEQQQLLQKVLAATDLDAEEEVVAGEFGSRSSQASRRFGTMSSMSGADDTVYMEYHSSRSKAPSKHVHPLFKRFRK

Sequence of cysteines in MDA-MB-231 and Ramos cells (Homo sapiens, UniProt Q06203) (Q06203 12-517): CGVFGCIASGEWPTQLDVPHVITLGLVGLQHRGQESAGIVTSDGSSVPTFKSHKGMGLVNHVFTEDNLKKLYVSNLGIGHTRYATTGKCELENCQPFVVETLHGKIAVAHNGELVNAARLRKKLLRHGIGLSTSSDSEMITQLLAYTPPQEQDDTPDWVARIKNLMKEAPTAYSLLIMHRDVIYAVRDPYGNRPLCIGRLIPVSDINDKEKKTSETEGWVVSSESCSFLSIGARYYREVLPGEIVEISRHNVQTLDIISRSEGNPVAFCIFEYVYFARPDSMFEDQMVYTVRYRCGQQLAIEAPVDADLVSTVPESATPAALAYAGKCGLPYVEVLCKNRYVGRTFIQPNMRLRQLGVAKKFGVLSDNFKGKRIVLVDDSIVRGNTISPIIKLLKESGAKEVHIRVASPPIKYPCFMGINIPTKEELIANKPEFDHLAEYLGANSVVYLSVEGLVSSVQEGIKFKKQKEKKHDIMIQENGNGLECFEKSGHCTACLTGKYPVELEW

SMILES: COc1ccc2c(c1)CCCN2C(=O)CCl [compound 2]
- isoTOP-ABPP reactivity P29590_C389 PML ([1]; 200 μM, insitu, 231): 15.6
- isoTOP-ABPP reactivity Q9NWA0_0139 MED9 ([2]; 200 μM, insitu, 231): 4.3

SMILES: COc1ccc(C2CC(c3cccs3)=NN2C(=O)CCl)cc1 (centres unmarked) [compound 4]
- isoTOP-ABPP reactivity Q06203_C100 PPAT ([3]; 100 μM in situ 231): 1.7
- isoTOP-ABPP reactivity Q9NWA0_0139 MED9 ([2]; 100 μM in situ 231): 14

SMILES: COc1cc2c(cc1OC)CN(C(=O)CCl)CC2 [compound 8]
- isoTOP-ABPP reactivity P19447_C342 ERCC3 ([4]; 200 μM, insitu, 231): 12.4

SMILES: Cn1cc(S(=O)(=O)N2CCOCC2)cc1C(=O)NC(=O)CCl [compound 11]
- isoTOP-ABPP ratio P29590_C389 ([1]; 100 μM in situ 231): 0.5
- isoTOP-ABPP ratio P19447_C342 ([4]; 100 μM in situ 231): 0.7

SMILES: O=C(CCl)NCCc1c[nH]c2ccccc12 [compound 13]
- isoTOP-ABPP ratio, cysteine Q06203_C100 ([3]; ramos): 2.0
- isoTOP-ABPP ratio P29590_C389 ([1]; 200 μM, insitu, 231): 1.3
- isoTOP-ABPP ratio, cysteine Q9NWA0_C139 ([2]; 200 μM, insitu, 231): 1.1
- isoTOP-ABPP ratio P19447_C342 ([4]; 200 μM, insitu, 231): 1.1

SMILES: O=C(CCl)N1CCN(CC(=O)N2CCOCC2)CC1 [compound 29]
- isoTOP-ABPP ratio Q06203_C100 ([3]; ramos): 1.6
- isoTOP-ABPP ratio Q9NWA0_C139 ([2]; 200 μM, insitu, ramos): 0.7

SMILES: Cc1ccc(C=C(C#N)C(=O)NCCN2CCOCC2)cc1 [compound 41]
- isoTOP-ABPP ratio P29590_C389 ([1]; 200 μM, insitu, 231): 0.4
- isoTOP-ABPP ratio Q9NWA0_C139 ([2]; 200 μM, insitu, 231): 0.8
- isoTOP-ABPP ratio P19447_C342 ([4]; 200 μM, insitu, 231): 0.7

SMILES: CC1CCc2ccccc2N1C(=O)CCl (centres unmarked) [compound 45]
- isoTOP-ABPP ratio P29590_C389 ([1]; 200 μM, insitu, 231): 3.4
- isoTOP-ABPP ratio P19447_C342 ([4]; 200 μM, insitu, 231): 5.9

SMILES: O=C(CCl)Nc1cccc2ncccc12 [compound 51]
- isoTOP-ABPP ratio P29590_C389 ([1]; 200 μM, insitu, 231): 0.9

Next, values leading:

- isoTOP-ABPP ratio, cysteine Q06203_C100 ([3]; ramos): 20.0
- isoTOP-ABPP ratio P29590_C389 ([1]; 200 μM, insitu, 231): 7.9
- isoTOP-ABPP ratio, cysteine Q9NWA0_C139 ([2]; 200 μM, insitu, 231): 2.9
- isoTOP-ABPP ratio P19447_C342 ([4]; 200 μM, insitu, 231): 20.0
SMILES: O=C(CCl)N1CCN(S(=O)(=O)c2ccccc2F)CC1 [compound 10]

- isoTOP-ABPP ratio, cysteine Q9NWA0_C139 ([2]; 200 μM, insitu, 231): 20.0
- isoTOP-ABPP ratio P19447_C342 ([4]; 200 μM, insitu, 231): 6.7
SMILES: O=C(CCl)NC(=O)NC12CC3CC(CC(C3)C1)C2 [compound 12]

- isoTOP-ABPP ratio P29590_C389 ([1]; 200 μM, insitu, 231): 20.0
- isoTOP-ABPP ratio, cysteine Q9NWA0_C139 ([2]; 200 μM, insitu, 231): 1.5
- isoTOP-ABPP ratio P19447_C342 ([4]; 200 μM, insitu, 231): 2.0
SMILES: O=C(CCl)NC12CC3CC(CC(C3)C1)C2 [compound 21]

- isoTOP-ABPP ratio Q06203_C100 [3]; 231: 0.8
- isoTOP-ABPP ratio P29590_C389 ([1]; 200 μM, insitu, 231): 0.5
- reactivity profile of liganded cysteine P29590_C213 with fragment electrophile (isoTOP-ABPP ratio) ([1]; cysteine P29590_C213, fragment 200 μM, in situ, 231 (MDA-MB-231) cells): 0.8
- isoTOP-ABPP ratio Q9NWA0_C139 ([2]; 200 μM, insitu, 231): 1.3
SMILES: CC(C)CCOCCNC(=O)CCl [compound 27]

- isoTOP-ABPP ratio Q06203_C100 [3]; 231: 0.6
- isoTOP-ABPP ratio Q06203_C100 ([3]; ramos): 1.2
- isoTOP-ABPP ratio P29590_C389 ([1]; 200 μM, insitu, 231): 1.1
SMILES: C=CC(=O)N(Cc1cccnc1)c1cc(C(F)(F)F)cc(C(F)(F)F)c1 [compound 31]

- isoTOP-ABPP ratio Q06203_C100 [3]; 231: 1.2
- isoTOP-ABPP ratio P29590_C389 ([1]; 200 μM, insitu, 231): 2.2
- isoTOP-ABPP ratio P19447_C342 ([4]; 200 μM, insitu, 231): 1.0
SMILES: C=CC(=O)Nc1cc(F)c(N2CCN(C(=O)OC(C)(C)C)CC2)c(F)c1 [compound 38]
